Reference: US20050003500A1, “(2S, 3S) -2,3-butanediol dehydrogenase” (Daicel Chemical Industries, Ltd., priority 2003, published 2005)

Key:
[1] = tested on: (2S,3S)-2,3-butanediol dehydrogenase; test: Activation of (2S,3S)-2,3-butanediol dehydrogenase activity by divalent ions; assay type: biochemical, Zoogloea ramigera; conditions: divalent ion 1 mM; activity in the absence of the ions taken as 100
Experimental: (§1) React a reaction solution containing 50 mM glycine-sodium hydroxide buffer (pH 11.0), 2.5 mM NAD^+, 50 mM (2S,3S)-2,3-butanediol and the enzyme at 30° C. Then, measure the increase of absorbance at 340 nm relative to the increase of NADH. 1 U is defined as the amount of enzyme that catalyzes a 1-μmol increase of NADH in 1 minute.
The activation effect by a divalent ion can be measured as described above by adding 1 mM of a metal ion into the above-mentioned reaction solution.

[2] = tested on: (2S,3S)-2,3-butanediol dehydrogenase; test: Dehydrogenase (oxidative) activity of the purified enzyme on various substrates, NAD+ as coenzyme; assay type: biochemical, Zoogloea ramigera; conditions: oxidation; substrate 50 mM, standard reaction condition; activity on (2S,3S)-2,3-butanediol taken as 100
Experimental: as §1
The dehydrogenase activity of the enzyme obtained in Example 1 was measured against various substrates (50 mM) under the standard reaction condition.

[3] = molecular target: L-2,3-butanediol dehydrogenase (Corynebacterium glutamicum, UniProt Q9ZNN8); conditions: Biosci. Biotechnol. Biochem. 65, 1876-1878 (2001); cited from earlier work
[4] = molecular target: acetoin reductase (Klebsiella pneumoniae, UniProt Q48436); conditions: J. Ferment. Technol. 83, 32-37 (1997); cited from earlier work
[5] = tested on: (2S,3S)-2,3-butanediol dehydrogenase; test: Reductive activity of the purified enzyme on various substrates, NADH as coenzyme; assay type: biochemical, Zoogloea ramigera; conditions: reduction; substrate 50 mM, standard reaction condition; activity on 2,3-butanedione taken as 100
Experimental: React a reaction solution containing 50 mM potassium phosphate buffer (pH 5.5), 0.2 mM NADH, 20 mM 2,3-butanedione and the enzyme at 30° C. Then, measure the decrease of absorbance at 340 nm relative to the decrease of NADH. 1 U is defined as the amount of enzyme that catalyzes a 1-μmol decrease of NADH in 1 minute. The protein can be quantified by a dye binding method using BioRad protein assay kit.
The reductive activity of the enzyme obtained in Example 1 was measured on various substrates (50 mM) under the standard reaction condition.

[6] = (2S,3S)-2,3-butanediol oxidation activity of enzyme preparations from Zoogloea ramigera; assay type: biochemical; conditions: fraction after each purification step
Experimental: as §1
Zoogloea ramigera strain DSM287 was cultured at 28° C. for 54 hours in 1.2 L of YPD medium that uses glycerol as a carbon source, and wet bacterial cells were prepared by centrifugation. Approximately 30 g of the obtained wet bacterial cells were suspended in a 50 mL solution of 50 mM potassium phosphate buffer (pH8.0) and 1 mM 2-mercaptoethanol. The cells were then disrupted using Multi-beads shocker (Yasui Kikai), and bacterial cell debris was removed by centrifugation to obtain cell-free extract. Protamine sulfate was added to this cell-free extract and nucleic acids were removed by centrifugation to yield the supernatant. Ammonium sulfate was added to this supernatant up to 30% saturation, and this was applied onto phenyl-sepharose column (2.6 cm×10 cm) equilibrated with standard buffer (10 mM Tris-HCl buffer (pH8.0) and 0.01% 2-mercaptoethanol) comprising 30% ammonium sulfate. After washing the column with the same buffer, gradient elution was performed with 30% to 0% saturated ammonium sulfate. […]

Sequence of acetoin reductase (Q48436 whole entry): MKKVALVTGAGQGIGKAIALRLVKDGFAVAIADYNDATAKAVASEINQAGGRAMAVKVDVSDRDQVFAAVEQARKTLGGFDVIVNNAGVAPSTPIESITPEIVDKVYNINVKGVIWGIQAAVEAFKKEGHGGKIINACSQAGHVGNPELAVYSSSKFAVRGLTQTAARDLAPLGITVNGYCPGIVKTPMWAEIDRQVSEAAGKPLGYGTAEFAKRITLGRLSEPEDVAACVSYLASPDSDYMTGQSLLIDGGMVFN
Sequence of L-2,3-butanediol dehydrogenase (Q9ZNN8 whole entry): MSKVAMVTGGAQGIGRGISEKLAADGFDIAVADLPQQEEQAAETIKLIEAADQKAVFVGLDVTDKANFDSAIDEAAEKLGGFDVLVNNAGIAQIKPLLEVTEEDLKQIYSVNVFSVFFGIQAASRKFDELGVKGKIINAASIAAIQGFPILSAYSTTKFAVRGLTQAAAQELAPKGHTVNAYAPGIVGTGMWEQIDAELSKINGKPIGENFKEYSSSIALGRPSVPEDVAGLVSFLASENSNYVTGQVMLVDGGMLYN

Compound | Relative activity (%) [1] | Relative activity (%) [2] | also measured
[Co+2] [Co^2+] | 106% |  | 
(S)-2-butanol |  | 43.3% | 
[Mg+2] [Mg^2+] | 110% |  | 
CCC(C)O (stereo not drawn) [2-butanol] |  |  | activity of the enzyme towards the substrate [3]: lacks activity
[Ni+2] [Ni^2+] | 104% |  | 
CC(O)C(C)O (stereo not drawn) [meso-2,3-butanediol] |  | 0% | action of the enzyme on the substrate [4]: specifically act
(R)-2-butanol |  | 1.11% | 
C[C@@H](O)[C@@H](C)O [(2R,3R)-2,3-butanediol] |  | 2.89% | 
[Cu+2] [Cu^2+] | 107% |  | 
OC[C@H](O)CCl [(S)-3-chloro-1,2-propanediol] |  | 0% | 
[Zn+2] [Zn^2+] | 109% |  | 
[Ba+2] [Ba^2+] | 112% |  | 
[Mn+2] [Mn^2+] | 104% |  | 
C[C@H](O)CO [(S)-1,2-propanediol] |  | 55.3% | 
C[C@@H](O)CO [(R)-1,2-propanediol] |  | 0.90% | 
CC(=O)C(C)=O [2,3-Butanedione] |  |  | Relative activity (%) [5]: 100%
[Ca+2] [Ca^2+] | 113% |  | 
Hydroxyapatite |  |  | Specific activity (U/mg) [6]: 60.9 U/mg
OC[C@@H](O)CCl [(R)-3-chloro-1,2-propanediol] |  | 3.62% | 
CC(=O)C(C)O (stereo not drawn) [Acetoin] |  | 0.26% | Relative activity (%) [5]: 58.9%
C[C@H](O)[C@H](C)O [(2S,3S)-2,3-butanediol] |  | 100% | action of the enzyme on the substrate [4]: doesnot act
